Experiments:
skin keratinocytes = experiment: Keratinocyte growth (skin barrier strengthening), Cell Counter Kit-8; format: cell-based; settings: 100 ng/mL T-IGF-1 or IGF-1, one day; control = 100
Protocol: (§1) Specifically, skin keratinocytes were cultured in a 96-well plate for one day to obtain cultures at a density of 6,000 cells per well. The cultures were washed with PBS and cultured in a serum-free DMEM medium for one day. The cells were washed with PBS again and cultured in a serum-free DMEM medium supplemented with 100 ng/mL T-IGF-1 or IGF-1 for one day. The cultures were obtained therefrom and a difference between proliferated amounts of cells was quantitively analyzed using the Cell Counter Kit-8 (Dojindo). Here, skin keratinocytes cultured in a serum-free DMEM medium without T-IGF-1 or IGF-1 were used as a control (Table 14).
Specifically, skin keratinocytes were cultured in a 96-well plate for 24 hours to obtain cultures at a density of 6,000 cells per well.
as §1, with “The” for “Specifically, skin keratinocytes were cultured in a 96-well plate for one day to obtain cultures at a density of 6,000 cells per well. The”, “T-KGF” for “T-IGF-1”, “KGF” for “IGF-1”, “18).” for “14).”

dermal fibroblasts = experiment: Collagen production in dermal fibroblasts (ELISA); format: cell-based, human; settings: 10 ng/mL, serum-free DMEM, two days; control = 100
Protocol: Specifically, dermal fibroblasts were inoculated onto a 24-well plate and cultured for 24 hours to obtain cultures having a saturation degree of 70 to 80%. The cultures were washed with PBS and cultured in a serum-free DMEM medium including 10 ng/mL T-PDGFa or PDGFa for two days. A supernatant was obtained therefrom and the amount of collagen produced and released in the culture solution was quantitively analyzed using an ELISA kit (R&D Systems) (Table 4).

Substance | Production (%) (keratinocyte growth) (skin keratinocytes) | Production (%) of collagen (dermal fibroblasts) [%]
IGF-1: insulin-like growth factor-1 having an amino acid sequence of SEQ ID NO: 41 | 250 ± 20 | –
PDGFa: platelet-derived growth factor subunit a having an amino acid sequence of SEQ ID NO: 35 | – | 264 ± 17

From patent US20200165312A1, “COSMETIC COMPOSITION FOR IMPROVING SKIN CONDITIONS COMPRISING FUSION PROTEIN INCLUDING SKIN PENETRATION ENHANCING PEPTIDE” (LG HOUSEHOLD & HEALTH CARE LTD., priority 2017, published 2020)
